Test results published in patent US20050255111A1, “Use of an inhibitor or antagonist against tissue factor” (priority 2002, published 2005).

Key:
[1] = tested on: IBMIR; experiment: IBMIR in vitro
[2] = tested on: TF; experiment: TF synthesis and secretion in cultured human islets (TF content by EIA); format: cell-based
Procedure: Islets were cultured for 24 h in CMRL-medium containing […] Nicotinamide, which is the standard medium used for islet culture. The medium was thereafter exchanged to CMRL-medium without Nicotinamid. After a baseline period of another 24 h, islets were handpicked for analysis of TF content. Culture was continued for 48 h with medium containing agents known to affect TF expression in monocytes and endothelial cells. These were, L-Arginin, Cyclosporin A, Enalapril, acetylcysteine and nicotinamid. The islets were harvested, the TF content analysed using a commercial EIA kit and the islets tested in the in vitro loop model.
Islets were cultured for 48 h in medium containing 0, 10, 25 and 50 mM Nicotinamid and the intracellular TF concentration assessed, see FIG. 6. The islets were also exposed to fresh human ABO compatible blood in the in vitro loop model. Samples were retrieved after 5, 15, 30 and 60 min and analysed for TAT, see FIG. 7.
Islets were cultured for 48 h in medium containing Enalapril (40 μg/ml), Cyclosporin A (10 μmol/L), L-Aginine (1 mmol/L), Nicotinamide (10 mmol/L) and the intracellular TF concentration assessed. The concentration of Tf is expressed as percentage of the untreated control, see FIG. 8.

Row | Compound | IBMIR in vitro [1] | production of tissue factor in the islets (TF content) ([2]; nicotinamide 0 to 50 mM, 48 h culture) | secretion of TF ([2]; nicotinamide, dose dependent)
1 | N=C(N)c1ccc(CNC(=O)[C@@H]2CCN2C(=O)[C@H](NCC(=O)O)C2CCCCC2)cc1 [Melagatran] | abrogated |  | 
2 | NC(=O)c1cccnc1 [nicotinamide] |  | dose-dependently inhibited | inhibited
